This test deals with T1, PP2A (Bos taurus, UniProt P67774).
T1 construct: gene PPP2CA
Briefly: colorimetric pNPP phosphatase assay with purified enzyme, […] min pre-incubation. Type of test: biochemical.

T1 sequence (P67774 whole entry): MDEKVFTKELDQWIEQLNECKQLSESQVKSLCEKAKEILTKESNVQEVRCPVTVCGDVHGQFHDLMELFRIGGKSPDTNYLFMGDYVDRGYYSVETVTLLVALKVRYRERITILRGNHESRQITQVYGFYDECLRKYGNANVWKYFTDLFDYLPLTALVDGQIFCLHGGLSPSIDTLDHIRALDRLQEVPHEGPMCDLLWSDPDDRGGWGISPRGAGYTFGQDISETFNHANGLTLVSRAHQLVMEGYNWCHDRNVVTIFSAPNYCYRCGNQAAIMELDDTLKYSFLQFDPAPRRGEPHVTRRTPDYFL

With `O=C(O)c1cc(=O)c2c(OCC(O)COc3cccc4oc(C(=O)O)cc(=O)c34)cccc2o1` [cromoglycate], the IC50 was roughly 1.7 nM.
Under `CCCc1c2oc(C(=O)O)cc(=O)c2cc2c(=O)cc(C(=O)O)n(CC)c12` [nedocromil] stands roughly 0.65 nM.

The values above are taken from PMC2888050, “Cromoglycate drugs suppress eicosanoid generation in U937 cells by promoting the release of Anx-A1” (Biochemical Pharmacology, 2009).
